From PubChem BioAssay (NCI)
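In this assay, cells in 96-well plates receive the compound at five concentrations for 48 hours. Endpoints are linearly interpolated between the surrounding concentrations. TGI marks complete inhibition of growth.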

Columns and labels:
Experiment in all cases: NCI-60 cell line screen, 48 h
[1] = test system: 786-0 renal
[2] = test system: A498 renal
[3] = test system: A549 NSCLC
[4] = test system: ACHN renal
[5] = test system: CAKI-1 renal
[6] = test system: CCRF-CEM leukemia
[7] = test system: COLO 205 colon
[8] = test system: DLD-1 colon
[9] = test system: DMS 114 small cell lung
[10] = test system: DMS 273 small cell lung
[11] = test system: EKVX NSCLC
[12] = test system: HCC-2998 colon
[13] = test system: HCT-116 colon
[14] = test system: HCT-15 colon
[15] = test system: HL-60(TB) leukemia
[16] = test system: HOP-18 NSCLC
[17] = test system: HOP-62 NSCLC
[18] = test system: HOP-92 NSCLC
[19] = test system: HT29 colon
[20] = test system: IGROV1 ovarian
[21] = test system: K-562 leukemia
[22] = test system: KM12 colon
[23] = test system: KM20L2 colon
[24] = test system: LOX IMVI melanoma
[25] = test system: LXFL 529 NSCLC
[26] = test system: M14 melanoma
[27] = test system: M19-MEL melanoma
[28] = test system: MALME-3M melanoma
[29] = test system: MOLT-4 leukemia
[30] = test system: NCI-H226 lung
[31] = test system: NCI-H23 lung
[32] = test system: NCI-H460 lung
[33] = test system: NCI-H522 lung
[34] = test system: OVCAR-3 ovarian
[35] = test system: OVCAR-4 ovarian
[36] = test system: OVCAR-5 ovarian
[37] = test system: OVCAR-8 ovarian
[38] = test system: RPMI-8226 leukemia
[39] = test system: RXF 393 renal
[40] = test system: SF-268 CNS
[41] = test system: SF-295 CNS
[42] = test system: SF-539 CNS
[43] = test system: SK-MEL-2 melanoma
[44] = test system: SK-MEL-28 melanoma
[45] = test system: SK-MEL-5 melanoma
[46] = test system: SK-OV-3 ovarian
[47] = test system: SN12C renal
[48] = test system: SNB-19 CNS
[49] = test system: SNB-75 CNS
[50] = test system: SNB-78 CNS
[51] = test system: SR leukemia
[52] = test system: SW-620 colon
[53] = test system: TK-10 renal
[54] = test system: U251 CNS
[55] = test system: UACC-257 melanoma
[56] = test system: UACC-62 melanoma
[57] = test system: UO-31 renal
[58] = test system: XF 498 CNS

Measured: TGI

Oc1ccc(-c2c3ccccc3c(-c3ccc(O)cc3)c3ccccc23)cc1
> 100 µM: all assays above
